# Biological target: T1, protease 1147 (Cohnella sp. A01, UniProt A0A5J6KIY6)
# T1 construct: full length, 169 residues, no signal peptide, C-terminal His-tag (pET26b(+)), E. coli BL21 (DE3), about 18 kDa on SDS-PAGE; N-terminus from primer MKKVAFL; Ni-NTA
# T1 sequence (A0A5J6KIY6 1-169): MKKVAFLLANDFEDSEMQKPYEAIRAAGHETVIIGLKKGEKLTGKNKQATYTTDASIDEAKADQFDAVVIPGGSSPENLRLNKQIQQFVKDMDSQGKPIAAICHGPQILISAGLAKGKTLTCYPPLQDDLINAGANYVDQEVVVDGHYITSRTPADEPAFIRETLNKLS
# Assay: casein hydrolysis, TCA-soluble A280
# Type: biochemical
# Settings: […] and […] inhibitor; casein substrate; table prints NA, text says completely inhibited; […] C, pH […]
smiles,measurement,value
"CC(C)C[C@H](NC(=O)[C@@H]1O[C@H]1C(=O)O)C(=O)NCCCCN=C(N)N [E-64, Trans-Epoxysuccinyl-L-leucylamido (4-guanidino) butane]",relative activity (%),"completely inhibited by IAM, E-64, and leupeptin, which are the typical cysteine protease inhibitors"
